In patent US8501813B2, “γ-secretase inhibitor” (Kabushiki Kaisha Yakult Honsha, priority 2007, dated 2013):

What was measured:
γ-secretase [1] = molecular target: T1, γ-secretase (Homo sapiens, UniProt P49768); assay: Substrate specificity: FLAG-Aβ secretion by HEK293 cells transfected with FLAG APP C99, anti-FLAG immunoprecipitation/western blot; type: cell-based; conditions: 0.2 μmol/L
Protocol: (§1) Of families constituting human Alcadein (hereinafter, referred to as Alc) known as a substrate for γ-secretase to colocalize with APP in brain neurons, an artificial Alcα fragment (hereinafter, referred to as Alcα C150) whose first extracellular cleavage site and γ-secretase cleavage site were determined was used to study the substrate specificity of the γ-secretase inhibitor of the present invention. β-Alcα produced from a first cleavage construct of Alcα cannot be quantified by sELISA used in Aβ measurement. Therefore, proteins with an attached FLAG tag at the N termini of first cleavage constructs of Alcα and of C99 were expressed by cells. FLAG-Aβ-like peptides secreted into a medium were collected by immunoprecipitation using anti-FLAG antibodies and detected by western blotting using the antibodies. A specific method thereof is shown below.
(§2) HEK293 cells (ATCC) (1×10^7 cells/10 cm dish) cultured in 6 ml of 10% FCS-containing DMEM (Wako Pure Chemical Industries, Ltd.) were transfected with FLAG APP C99 pcDNA3.1 (the nucleotide sequence of its coding region is shown in SEQ ID NO: 2) (J. Biol. Chem., 2003, 278, 49448-49458 (which was prepared from pcDNA3-APPC99)) or with FLAG Alcα C150 pcDNA3.1 (the nucleotide sequence of its coding region is shown in SEQ ID NO: 3) (J. Biol. Chem., 2004, 279, 24343-24354 (which was the same as pcDNA3AlcαΔE)) using Lipofectamine 2000 (Invitrogen Corp.) according to the protocol included in the reagent. Each inhibitor and a positive control (γ-Secretase Inhibitor IX (DAPT)) (Calbiochem Contact Information) were separately added at a concentration of 0.2 or 2 μmol/L. The same dose of DMSO (Wako Pure Chemical Industries, Ltd.) thereas was added as a negative control. 24 hours later, the culture supernatants were collected, and samples were preliminarily purified using beads (100 μL of 50% (v/v) Protein-G Sepharose (GE Healthcare)). Then, 15 μL of 50% (v/v) anti-FLAG antibody M2 beads (Sigma-Aldrich Corp.) were added thereto, and the samples were incubated at 4° C. for 1 hour. The beads were collected by centrifugation and washed three times with a buffer (10 mM Tris-HCl [pH 8.0], 140 mM NaCl, 0.1% n-octyl glucoside, 0.025% sodium azide), and Aβ and β-Alcα in the medium were collected. The proteins were subjected to SDS-PAGE using a 15% Tris-Tricine gel (Anal Biochem., 1987, 166 (2), 368-379) and then transferred to a membrane. The membrane was boiled for 5 minutes in PBS. Then, anti-FLAG M2 antibodies (5 μg/ml) (Sigma-Aldrich Corp.) were added thereto, and the membrane was incubated, followed by detection using a western blotting detection reagent ECL (GE Healthcare). This signal was quantified using Versa-doc system (Bio-Rad Laboratories, Inc.) to calculate protein secretion rates (the protein secretion rate of the negative control is defined as 100%).

γ-secretase [2] = molecular target: T1, γ-secretase; assay: Substrate specificity: β-Alcα secretion by HEK293 cells transfected with FLAG Alcα C150, anti-FLAG immunoprecipitation/western blot; type: cell-based; conditions: 0.2 μmol/L
Protocol: as §1, §2

CSCC[C@H](NC(=O)[C@@H](NC(=O)[C@H](CC(C)C)C[C@@H](O)[C@@H](NC(=O)OC(C)(C)C)[C@@H](C)O)c1ccccc1)C(=O)NCc1ccccc1 [TLVM-11, [5S-(tert-butoxycarbonylamino)-4R,6R-dihydroxy-2R-(2-methylpropyl)heptanoyl]-L-phenylglycyl-L-methionine benzylamide]
(i)/(ii) ratio, Aβ / β-Alcα secretion rates (γ-secretase [1]): 0.12 | cleavage of APP-C99, in words (γ-secretase [1]): specifically inhibited | (i) Aβ secretion rate of HEK293 cells (γ-secretase [1]; 24 h, FLAG APP C99, negative control = 100%): 8% | γ cleavage of the Alcα-C150, in words (γ-secretase [2]): did not inhibit | (ii) β-Alcα secretion rate of HEK293 cells (γ-secretase [2]; 24 h, FLAG Alcα C150, negative control = 100%): 68%
